# Structures can show the parent of a compound that is named as a salt.
# Assays:
# [1] = target: T1, human 5HT2C receptor (Homo sapiens, UniProt P28335); assay: Intracellular IP3 Accumulation Assay; type: cell-based; settings: HEK293 cells transfected with human 5HT2C receptor; averages of at least two trials; read-out: 5-HT2C (IC50) IP Accumulation Assay
# T1 construct: expressed in transfected cells; host or cells: HEK293
# T1 sequence (P28335 33-458): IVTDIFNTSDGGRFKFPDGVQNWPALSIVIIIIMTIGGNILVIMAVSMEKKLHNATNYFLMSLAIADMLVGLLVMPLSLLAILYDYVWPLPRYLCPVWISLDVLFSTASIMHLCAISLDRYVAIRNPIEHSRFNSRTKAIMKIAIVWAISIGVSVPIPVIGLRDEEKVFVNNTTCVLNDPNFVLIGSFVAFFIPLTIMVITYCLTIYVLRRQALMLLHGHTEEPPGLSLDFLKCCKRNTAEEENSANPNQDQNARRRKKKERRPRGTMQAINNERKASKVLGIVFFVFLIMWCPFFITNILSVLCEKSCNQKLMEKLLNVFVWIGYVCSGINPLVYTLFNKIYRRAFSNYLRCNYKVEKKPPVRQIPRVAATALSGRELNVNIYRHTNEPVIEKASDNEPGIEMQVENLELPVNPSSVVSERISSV
# Method: Intracellular IP3 Accumulation Assay
# HEK293 cells were transfected in 15 cm sterile dishes with or without (control) 16 ug of human 5HT2C receptor cDNA [Saltzman, A. G., et al. Biochem. Biophys. Res. Commun. 181, 1469-1478 (1991)] using 25 ul of lipofectamine. Cells were then incubated for 3-4 hours at 37° C./5% CO2 and then transfection media was removed and replaced with 100 μL of DMEM. Cells were then plated onto […] sterile dishes. The next day cells were plated into 96 well PDL microtiter plates at a density of 55K/0.2 ml. Six hours latter, media was exchanged with [^3H]inositol (0.25 μCi/well) in inositol free DMEM and plates were incubated at 37° C./5% CO2 overnight. The next day, wells were aspirated and 200 μl of DMEM containing test compound, 10 μM pargyline, and 10 mM LiCl was added to appropriate wells. Plates were then incubated at 37° C./5% CO2 for three hours followed aspiration and by addition of fresh ice cold stop solution (1M KOH, 19 mM Na-borate, 3.8 mM EDTA) to each well. Plates were kept on ice for 5-10 min and the wells were neutralized by addition of 200 μL of fresh ice cold neutralization solution (7.5% HCl). Plates were then frozen until further processing is desired. The lysate was then transferred into 1.5 mL Eppendorf tubes and 1 mL of chloroform/methanol (1:2) was added/tube. […]
# [2] = tested on: amyloid precursor protein (APPs); settings: guinea pigs, in vivo, repeat administration; cited from earlier work
# [3] = tested on: serotonin 5HT2A receptors; settings: 3T3 fibroblasts expressing 5HT2A; cited from earlier work
compound,measurement,setting,value
"COc1cc2c(cc1Cc1ccccc1)C(C)CNCC2 (racemic) [Example 14, (R,S)-8-Benzyl-7-methoxy-1-methyl-2,3,4,5-tetrahydro-1H-benzo[d]azepine hydrochloride]",IC50,[1],7 nM
C[C@H](N)Cc1cccc(C(F)(F)F)c1 [dexnorfenfluramine],amyloid precursor protein (APPs) secretion,[2],stimulated
same,levels of Aβ production,[2],reducing
"C[C@@H]1CNCCc2cc(Cc3ccccc3)c(Cl)cc21 [Example 13, (S)-7-Benzyl-8-chloro-1-methyl-2,3,4,5-tetrahydro-1H-benzo[d]azepine hydrochloride]",IC50,[1],30 nM
"NCCc1c[nH]c2ccc(O)cc12 [Example 5-HT, 5-hydroxytryptamine]",Maximal stimulation of APPs secretion,[3],about 4 fold

# From US20080009478A1, “Benzazepine Derivatives and Methods of Prophylaxis or Treatment of 5Ht2c Receptor Associated Diseases” (Arena Pharmaceuticals, Inc., priority 2003, published 2008)
